How the values were obtained:
[1] = biological target: T1, porcine leukocyte 12/15-Lipoxygenase (Sus scrofa, UniProt P16469); test: 12/15-Lipoxygenase Enzyme Assay; format: biochemical; details: 70 μM arachidonic acid, 10 minute incubation at room temperature, FOX reagent, absorbance at 620 nm; read-out: inhibition of 12/15-Lipoxygenase with an IC50
T1 sequence (P16469 1-663): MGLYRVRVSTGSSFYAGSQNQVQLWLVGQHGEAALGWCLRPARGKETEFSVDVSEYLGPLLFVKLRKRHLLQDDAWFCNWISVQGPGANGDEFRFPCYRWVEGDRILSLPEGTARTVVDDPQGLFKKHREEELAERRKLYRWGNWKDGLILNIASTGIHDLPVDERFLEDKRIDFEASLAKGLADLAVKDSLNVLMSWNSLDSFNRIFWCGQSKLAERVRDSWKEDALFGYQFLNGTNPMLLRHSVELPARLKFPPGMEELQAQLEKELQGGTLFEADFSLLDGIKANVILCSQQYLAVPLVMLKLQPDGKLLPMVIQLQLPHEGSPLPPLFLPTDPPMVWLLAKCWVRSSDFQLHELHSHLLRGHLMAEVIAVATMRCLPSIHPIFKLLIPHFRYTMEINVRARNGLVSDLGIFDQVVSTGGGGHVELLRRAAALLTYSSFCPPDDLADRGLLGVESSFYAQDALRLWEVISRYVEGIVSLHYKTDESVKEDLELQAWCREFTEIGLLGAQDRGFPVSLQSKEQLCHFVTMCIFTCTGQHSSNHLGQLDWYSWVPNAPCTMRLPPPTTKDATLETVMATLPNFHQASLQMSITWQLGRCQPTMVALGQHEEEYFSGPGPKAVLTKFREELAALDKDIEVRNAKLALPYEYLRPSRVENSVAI
Excerpt: This procedure was used for measuring the enzymatic activity of porcine leukocyte 12/15-Lipoxygenase using a […] method based on the ferric oxidation of xylenol orange.
• 96 well flat bottom microfilter plates (VWR, Catalog # 62402-933 9295) • Lipoxygenase screening assay buffer (Cayman, Catalog # 760710) • Porcine leukocyte 12/15-Lipoxygenase (Cayman, Catalog # 60300) • Arachidonic Acid (Sigma, Catalog # A3555) • Xylenol orange tetrasodium salt (Aldrich, Catalog # 227854) • Iron (II) sulfate heptahydrate (Sigma, Catalog # F7002) • Sulfuric acid (95-98%) [18M] • Methanol Procedure
Porcine Leukocyte 12/15-Lipoxygenase (Cayman Cat # 60300) was used in this assay. Test compound and/or vehicle was added to 1.3 μL 12/15-Lipoxygenase in 50 mM Tris-HCl buffer, pH 7.4. The reaction was initiated by addition of 70 μM arachidonic acid in Tris-HCl buffer, pH 7.4, and terminated after a 10 minute incubation at room temperature by addition of FOX reagent (25 mM sulfuric acid, 100 μM xylenol orange, 100 μM iron (II) sulfate, methanol:water 9:1). The yellow color of acidified xylenol orange was converted to a blue color by the lipid hydroperoxide-mediated oxidation of Fe^2+ ions and the interaction of the resulting Fe^3+ ions with the dye. The complex was allowed to form during a 1 hour incubation at room temperature with shaking. Absorbance of the Fe^3+ complex was then measured at […] using a spectrophotometer.
Negative controls contained enzyme during the incubation step but substrate was not added until after the FOX reagent. Compounds are screened at 5 concentrations in triplicate starting at 10 μM

[2] = biological target: T2, human recombinant 5-Lipoxygenase (Homo sapiens, UniProt P09917); test: 5-Lipoxygenase Enzyme Assay; format: biochemical; details: 70 μM arachidonic acid, 10 minute incubation at room temperature, FOX reagent, absorbance at 620 nm; read-out: inhibition of 5-Lipoxygenase with an IC50
T2 sequence (P09917 1-674): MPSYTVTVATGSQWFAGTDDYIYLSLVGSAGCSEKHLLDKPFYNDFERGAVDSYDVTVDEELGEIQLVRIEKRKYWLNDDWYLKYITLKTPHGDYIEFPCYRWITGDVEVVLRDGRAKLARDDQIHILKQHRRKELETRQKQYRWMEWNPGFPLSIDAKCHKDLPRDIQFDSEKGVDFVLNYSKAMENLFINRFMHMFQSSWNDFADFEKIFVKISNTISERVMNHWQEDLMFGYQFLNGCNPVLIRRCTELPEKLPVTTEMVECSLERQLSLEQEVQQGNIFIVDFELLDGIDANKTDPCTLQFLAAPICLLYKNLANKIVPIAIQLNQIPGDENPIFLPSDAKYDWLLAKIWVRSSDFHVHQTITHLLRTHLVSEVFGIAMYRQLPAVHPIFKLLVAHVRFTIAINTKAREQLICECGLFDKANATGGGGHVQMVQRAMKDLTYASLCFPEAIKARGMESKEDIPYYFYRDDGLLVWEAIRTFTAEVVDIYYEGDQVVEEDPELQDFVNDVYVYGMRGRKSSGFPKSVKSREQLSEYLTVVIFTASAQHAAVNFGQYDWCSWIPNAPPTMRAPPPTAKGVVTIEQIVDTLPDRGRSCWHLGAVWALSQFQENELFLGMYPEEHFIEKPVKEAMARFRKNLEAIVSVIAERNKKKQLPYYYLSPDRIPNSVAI
Outline: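 Recombinant human 5-LOX in 50 mM Tris-HCl pH 7.4 was preincubated with compound, then 70 μM arachidonic acid was added for 10 min at room temperature. Hydroperoxide was read by FOX reagent (ferric xylenol orange, 1 h complex formation) as absorbance at 620 nm. Five concentrations in triplicate were tested, starting at 10 μM.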

[3] = system: release of the leukotriene LTB4 from a neutrophil cell line (MPRO cell line); test: LTB4-Cell Assay; format: cell-based; details: Mus musculus, 1 h, read-out: inhibition of LTB4 with an EC50
Outline: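 Mouse promyelocytic cells differentiated to neutrophils with 10 μM all-trans retinoic acid for 72 h, then stimulated with 1 μM A23187 plus compound for 1 h at 37° C. Supernatant LTB4 quantified by competitive EIA; 5 concentrations in quadruplicate from 10 μM top.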

[4] = system: LTB4 production in human whole blood; test: Inhibition of LTB4 Production in Blood; format: cell-based; details: 1 h, 20 μM A23187, 60 minutes at 37° C., LTB4 in plasma by ELISA, read-out: protection against LTB4 at an EC50
Outline: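 Citrated human whole blood preincubated 15 min at 37 °C with compound (top final 30 μM, 1:3 dilutions, quadruplicate), then stimulated with 20 μM A23187 for 60 min at 37 °C. Plasma LTB4 quantified by ELISA; IC50 from percent inhibition versus vehicle.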

Row | SMILES | IC50 [1] [µM] | IC50 [2] [nM] | EC50 [3] [µM] | EC50 [4] [µM]
1 | Cc1c(C)c2c(c(C)c1O)C(OC(=O)Nc1ccccc1)CCS2 (stereo not drawn) [6-hydroxy-5,7,8-trimethylthiochroman-4-yl phenylcarbamate] | < 5 | < 300 | < 5 | –
2 | CO/N=C/C1=Cc2c(cc(C)c(O)c2C)OC12CCC2 [6-hydroxy-5,7-dimethylspiro[chromene-2,1′-cyclobutane]-3-carbaldehyde O-methyloxime] | < 5 | – | < 5 | < 10
3 | Cc1c(O)c(Cl)c(C)c2c1CCC1(CCC1)O2 [7-chloro-5,8-dimethyl-3,4-dihydrospiro[chromene-2,1′-cyclobutan]-6-ol] | < 5 | < 300 | < 5 | –
4 | Cc1c(O)c(C)c2c(c1Cl)OC1(CCC1)CC2 [8-chloro-5,7-dimethyl-3,4-dihydrospiro[chromene-2,1′-cyclobutan]-6-ol] | < 5 | < 300 | < 5 | –
5 | Cc1c(O)cc(Cl)c2c1CCC1(CCC1)O2 [8-chloro-5-methyl-3,4-dihydrospiro[chromene-2,1′-cyclobutan]-6-ol] | < 5 | < 300 | < 5 | –
6 | COC(=O)CSCC1Cc2c(C)c(O)c(C)c(C)c2OC12CCC2 (stereo not drawn) [methyl {[(6-hydroxy-5,7,8-trimethyl-3,4-dihydrospiro[chromene-2,1′-cyclobutan]-3-yl)methyl]thio}acetate] | < 5 | < 300 | < 5 | –

Source: patent US7576094B2, “Spiro derivatives as lipoxygenase inhibitors” (Eli Lilly and Company, priority 2004, dated 2009)
